Results published in paper PMC4207450, “Aurones: A Promising Heterocyclic Scaffold for the Development of Potent Antileishmanial Agents” (International Journal of Medicinal Chemistry, 2012).
Read-outs that look alike come from different tables or passages of the source.

Key:
[1] = test system: L. infantum intracellular amastigotes; assay: Growth inhibition of luciferase-expressing L. infantum intracellular amastigotes in THP1-differentiated macrophages; format: cell-based, Leishmania infantum; conditions: for IC50: Leishmania infantum, Macrophage, 72 h incubation, luciferase activity, infected THP1-differentiated macrophages
Experimental: A cloned line of L. infantum (MOM/MA671 TMAP263) promastigotes, stably expressing the luciferase gene (LUC), was grown in RPMI 1640 medium (Bio Whitaker, Belgium) supplemented with 10% heat-inactivated fetal bovine serum (FBS) (Bio Whitaker, Belgium), 2 mML-glutamine (Bio Whitaker, Belgium), 20 mM Hepes (Bio Whitaker, Belgium), 100 U/mL penicillin, and 100 μg/mL streptomycin (Bio Whitaker, Belgium). Selection of LUC positive parasites was done by adding geneticin-sulphate (Sigma-Aldrich, USA) to the culture media at a final concentration of 5 μg/mL. Parasites were maintained in culture, at 26°C by subpassage ([…]) at every 5 days.
L. infantum axenic amastigotes, stably expressing the LUC gene were derived from promastigotes by culturing them in MAA (Medium for Axenic Amastigotes) culture medium. MAA consisted of a modified medium 199 with Hanks balanced salt solution (Gibco-Invitrogen, Spain) supplemented with 0.5% soya broth trypto-casein (Bio-Rad, UK), 15 mM D-glucose (Panreac, Spain), 4 mM NaHCO3 (Sigma-Aldrich, USA). The pH was adjusted to 5.8, and the media was 0.2 μm sterilized by filtration and further supplemented with 0.023 mM bovine hemin (Fluka, USA), 5 mM L-glutamine, and 25% of heat inactivated FBS. Amastigotes were maintained in culture, at 37°C in an atmosphere containing 5% CO2 by subpassage (10^5 parasites/mL), at every 5 days.
THP1-differentiated macrophages were infected for a period of 4 h with stationary phase LUC expressing, L. infantum axenic amastigotes, at a 5 : 1 parasite to cell ratio. After the infection period, cells were washed with culture media to remove noninternalized parasites. Serial dilutions of the aurones, ranging from 50 to 0.78 μM in culture media, were added to the wells, in quadruplicate, and incubated for 72 h at 37°C, 5% CO2. After the incubation period, the luciferase activity of intracellular amastigotes was determined as described before. The percentage of growth inhibition was calculated as described above.

[2] = test system: THP1-differentiated macrophages; assay: Toxicity of aurones on THP1-differentiated macrophages (MTT assay); format: cell-based, human; conditions: for IC50: Homo sapiens, Macrophage, 72 h incubation, MTT assay, cytotoxicity; for toxicity to mammalian (THP1) cells, in words: THP1-differentiated macrophages
Experimental: The human leukaemia monocyte THP1 cell line was cultured as a monolayer at 37°C in a humidified atmosphere containing 5% CO2. Cells were grown in RPMI 1640 medium, supplemented with 10% heat-inactivated FBS, 2 mM L-glutamine, 100 U/mL penicillin, and 100 μg/mL streptomycin, and were maintained in culture, by subpassage every 3 days.
For macrophage differentiation, human leukaemia monocyte cell line (THP-1 cells) cells were incubated in the presence of 20 ng/ml phorbol 12-myristate 13-acetate (PMA, Sigma-Aldrich) for 18 h at 37°C, 5% CO2, and left another 24 h with fresh medium containing no PMA to induce maturation. Serial dilutions of each aurone, ranging from 100 to 1.56 μM in culture media, were added to the wells, in quadruplicate, and incubated for 72 h at 37°C, 5% CO2. Cell viability was assessed by the MTT assay, as described before.
The IC50 value, that is, the concentration of the aurone necessary to decrease cell viability to 50% of the untreated control, was determined by linear regression analysis.

[3] = ratio of IC50 on THP1-differentiated macrophages to IC50 on intracellular parasite

Structure (SMILES) | Selectivity index (SI) [1] | IC50 [1] [µM] | IC50 [2] [µM] | Selectivity index (SI) [1, 3] | toxicity to mammalian (THP1) cells, in words [2] | melting point [°C]
C[C@@H]1[C@H](O)[C@@H](C)/C=C/C=C/C=C/C=C/C=C/C=C/C=C/[C@H](O[C@@H]2O[C@H](C)[C@@H](O)[C@H](N)[C@@H]2O)C[C@@H]2O[C@](O)(C[C@@H](O)C[C@@H](O)[C@H](O)CC[C@@H](O)C[C@@H](O)CC(=O)O[C@H]1C)C[C@H](O)[C@H]2C(=O)O [Amphotericin B, reference compound] | 20.6 | 1.2 ± 0.1 | 23.8 ± 2.3 | – | – | –
COc1ccc(/C=C2\Oc3ccccc3C2=O)cc1 [Compound 4a] | – | – | 16.5 ± 3.1 | – | – | –
Cc1ccc(/C=C2\Oc3ccccc3C2=O)cc1 [Compound 4b] | – | – | 8.5 ± 0.8 | – | – | –
O=C1/C(=C/c2ccc(Cl)cc2)Oc2ccccc21 [Compound 4c] | – | – | 14.5 ± 2.1 | – | – | –
COc1ccccc1/C=C1\Oc2ccccc2C1=O [Compound 4d] | – | – | 17.5 ± 3.1 | – | – | –
COc1cccc(/C=C2\Oc3ccccc3C2=O)c1 [Compound 4e] | – | 4.7 ± 0.5 | 54.2 ± 7.3 | 11.5 | did not show significant toxicity | –
COc1ccc(/C=C2\Oc3ccccc3C2=O)cc1OC [Compound 4f] | – | – | 20.5 ± 1.2 | – | – | –
COc1ccc(/C=C2\Oc3cc(OC)cc(OC)c3C2=O)cc1 [Compound 4h] | – | – | 19.6 ± 2.5 | – | – | –
COc1cc(OC)c2c(c1)O/C(=C\c1ccccc1OC)C2=O [Compound 4i, 2′,4,6-trimethoxyaurone] | – | 1.3 ± 0.1 | 75.4 ± 4.7 | 57.5 | – | –
COc1cc(OC)c2c(c1)O/C(=C\c1ccccc1C)C2=O [Compound 4j, 4,6-Dimethoxy-2′-methylaurone] | – | 1.6 ± 0.2 | 68.1 ± 2.1 | 43.4 | – | 180 to 183
COc1cc(OC)c2c(c1)O/C(=C\c1ccccc1Cl)C2=O [Compound 4k, 4,6-Dimethoxy-2′-chloro-aurone] | – | 12.2 ± 1.4 | > 100 | >8.2 | not toxic to mammalian cells | 191 to 193
COc1cc(OC)c2c(c1)O/C(=C\c1ccccc1)C2=O [Compound 4l, 4,6-Dimethoxyaurone] | – | 2.1 ± 0.9 | 57.5 ± 3.4 | 26.9 | – | 139 to 142
